# Data taken from PubChem BioAssay (NCI).
# Several values for one entry are separate records, joined by “and”; a condition that tells them apart may be missing. Identical values can stand only once.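 Compound exposure: 48 hours, 5 concentrations, 96-well plates. GI50 = concentration required for 50% inhibition of growth. At the TGI there is no net growth.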
# How the values were obtained:
# Assay in all cases: NCI tumour cell line growth inhibition, 48 h
# A498 renal = tested on: A498 renal
# HOP-62 NSCLC = tested on: HOP-62 NSCLC
# SK-MEL-2 melanoma = tested on: SK-MEL-2 melanoma
# SK-MEL-5 melanoma = tested on: SK-MEL-5 melanoma
# SK-OV-3 ovarian = tested on: SK-OV-3 ovarian
# T-47D breast = tested on: T-47D breast
# U251 CNS = tested on: U251 CNS
# UACC-62 melanoma = tested on: UACC-62 melanoma
Structure (SMILES),TGI (A498 renal),TGI (HOP-62 NSCLC),TGI (SK-MEL-2 melanoma),TGI (SK-MEL-5 melanoma),TGI (SK-OV-3 ovarian),TGI (T-47D breast),TGI (U251 CNS),TGI (UACC-62 melanoma),GI50 (A498 renal) [µM],GI50 (HOP-62 NSCLC),GI50 (SK-MEL-2 melanoma),GI50 (SK-MEL-5 melanoma),GI50 (SK-OV-3 ovarian) [µM],GI50 (U251 CNS) [µM],GI50 (UACC-62 melanoma),GI50 (T-47D breast) [µM]
COc1cc(=O)oc(/C=C/C=C/C=C/C(C)=C\C2(C)OC(C)C(C)(O)C2O)c1C (stereo not given),> 100 µM,> 100 µM,> 100 µM,> 100 µM,> 100 µM,> 100 µM,> 100 µM,> 100 µM,–,–,–,–,–,–,–,–
Cc1nc2ccccc2c(/C=C/c2ccccc2)c1C(=O)/C=C/c1ccccc1,3.46 µM,4.1 µM,4.08 µM,3.17 µM,> 100 µM,–,2.93 µM,3.23 µM,1.83,1.9 µM,1.92 µM,1.77 µM,3.92,1.57,1.77 µM,–
COc1cccc(NC(=O)c2ccc(NC3=C(Cl)C(=O)N(Cc4ccccc4)C3=O)cc2)c1,48.9 µM,34.8 µM,–,26.9 µM,85.4 µM,> 100 µM,19.9 µM,28.8 µM,22.2,19.1 µM,–,14 µM,30.5,7.12,15.4 µM,21.5
C[C@H](C(O)CC(=O)C(C)(C)O)[C@H]1CC[C@@]2(C)[C@@H]3CC[C@H]4C(C)(C)[C@@H](OC5OC(COC6OC(CO)C(O)C(O)C6O)C(O)C(O)C5O)CC[C@]4(C)C3=CC[C@]12C (stereo not given in full),> 100 µM,> 100 µM,> 100 µM,> 100 µM,> 100 µM,> 100 µM,> 100 µM,> 100 µM,–,–,–,–,–,–,–,–
O=C1CCC(N2C(=O)c3cccc(NCCOCCOCCNC(=O)c4cc5c(o4)C(=O)c4ccccc4C5=O)c3C2=O)C(=O)N1 (stereo not given),3.12 µM,3.3 µM,6.46 µM,2.07 µM,7.78 µM,8.05 µM,3.25 µM,2.98 µM,1.66,1.84 µM,2.36 µM,0.787 µM,3.09,1.72,1.46 µM,2.46
CN1CCN(c2ccc(-c3cccc(CN4CCOCC4)c3)cc2NC(=O)c2c[nH]c(=O)cc2C(F)(F)F)CC1,–,> 100 µM,72 µM,28.3 µM,> 100 µM,> 100 µM,> 100 µM,> 100 µM,–,> 100 µM,27.3 µM,14.2 µM,> 100,23.6,60.1 µM,31.3
COc1ccc(C[C@H]2NC[C@H](O)[C@H]2OC(C)=O)cc1,0.32 µM,0.193 µM,0.398 µM,0.0585 µM,0.895 µM,0.754 µM,2.02 µM,0.225 µM,–,–,–,0.0176 µM,–,–,–,–
Cc1ccc2c(c1)-c1oc(=O)c(-c3cc4ccccc4oc3=O)cc1C(O)O2 (stereo not given),30.3 µM,41.4 µM,42.1 µM,33.2 µM,–,41.7 µM,26.6 µM,35.6 µM,16.2,22.9 µM,16.9 µM,19.1 µM,–,13.2,17.4 µM,21.3
COc1ccc(C(=O)c2cc(C)c(OC)c(C)c2)c(OC)c1N(C(=O)CCl)C(=O)CCl,0.103 µM,25 µM,19.7 µM,1.96 µM,> 83.8 µM,44.4 µM,20.3 µM,23.5 µM,0.0244,0.0546 µM,0.0522 µM,0.0554 µM,0.0514,0.0509,0.067 µM,0.0445
Clc1ccc(COC(Cn2ccnc2)c2ccc(Cl)cc2Cl)c(Cl)c1 (stereo not given),17.6 µM and 27.3 µM and 19.6 µM,5.73 µM and 27.2 µM and 26.6 µM,32.6 µM and 28.8 µM,–,9.92 µM and 27.5 µM and 27.4 µM,8.33 µM and 24.6 µM and 21.6 µM,16.1 µM and 25.8 µM and 23.6 µM,10.2 µM and 25 µM and 23.3 µM,–,2.07 µM,–,–,2.99,3.57,2.06 µM,2
CCN(CC)CCOc1ccc(Cc2ccccc2)cc1,87 µM,> 100 µM,50.5 µM,28.5 µM,> 100 µM,> 100 µM,> 100 µM,> 100 µM,19.3,32.4 µM,13.9 µM,15.1 µM,44,26.5,30.8 µM,25.5
COC(=O)[C@H](Cc1cn(C)cn1)NC(=O)[C@@H](NC(=O)Nc1cc(C(F)(F)F)cc(C(F)(F)F)c1)C(C)(C)C,> 10 µM,> 10 µM,> 10 µM,> 10 µM,> 10 µM,> 10 µM,> 10 µM,> 10 µM,> 10,> 10 µM,> 10 µM,> 10 µM,> 10,> 10,> 10 µM,> 10
C#CCN(Cc1nc2cc(C(F)(F)F)ccc2nc1-c1ccccc1)c1ccc(F)cc1,92.8 µM,> 100 µM,–,33.3 µM,> 100 µM,> 100 µM,> 100 µM,> 100 µM,38,34.7 µM,–,16.8 µM,33.4,38,25.5 µM,20.8
C[C@@H]1OC(=O)NN=C1c1ccc(-c2ccc(F)cc2)c(C(F)(F)F)c1,29.5 µM,26.2 µM,13.1 µM,9.01 µM,27.5 µM,25.8 µM,23.3 µM,–,15.5,10.7 µM,0.141 µM,2.28 µM,12.6,10.2,–,5.26
Clc1nc(-c2ccccc2)nc(Cl)c1Cl,31.5 µM,32.3 µM,–,26.7 µM,27 µM,28.5 µM,21.5 µM,27.8 µM,–,–,–,–,–,–,–,–
COC(=O)CCCNC(=O)C(=O)c1c(O)c(O)c(C(C)C)c2cc(C)c(-c3c(C)cc4c(C(C)C)c(O)c(O)c(C(=O)C(=O)NCCCC(=O)OC)c4c3O)c(O)c12,14.3 µM,4.21 µM,2.93 µM,4.7 µM,2.57 µM,3.06 µM,2.31 µM,2.07 µM,1.36,0.942 µM,0.858 µM,1.24 µM,0.855,0.298,0.657 µM,0.558
COc1ccccc1N1CCN(CCCOc2ccc(C(=O)/C=C3/C(=O)Nc4ccccc43)cc2)CC1,70.5 µM,54.8 µM,> 80.4 µM,18.4 µM,> 100 µM,> 73 µM,63.7 µM,28.4 µM,19.3,16.1 µM,5.54 µM,6.9 µM,28.2,15.4,11.9 µM,4.73
CC1(C)OC2COC(c3[nH]nc4c(=O)[nH]c(=O)[nH]c34)C2O1 (stereo not given),> 100 µM,> 100 µM,> 100 µM,> 100 µM,> 100 µM,> 100 µM,> 100 µM,> 100 µM,–,–,–,–,–,–,–,–

Structure (SMILES),TGI (A498 renal),TGI (HOP-62 NSCLC),TGI (SK-MEL-2 melanoma),TGI (SK-MEL-5 melanoma),TGI (SK-OV-3 ovarian),TGI (T-47D breast),TGI (U251 CNS),TGI (UACC-62 melanoma),GI50 (A498 renal) [µM],GI50 (HOP-62 NSCLC),GI50 (SK-MEL-2 melanoma),GI50 (SK-MEL-5 melanoma),GI50 (SK-OV-3 ovarian) [µM],GI50 (U251 CNS) [µM],GI50 (UACC-62 melanoma),GI50 (T-47D breast) [µM]
CCN(CC)c1ccc(/C=N/NC(=O)c2ccccc2Nc2ccnc(C(F)(F)F)c2)c(O)c1,> 32.9 µM,5.35 µM,97.9 µM,0.723 µM,> 100 µM,> 100 µM,> 44.7 µM,0.852 µM,0.354,0.121 µM,1.29 µM,0.143 µM,0.169,0.103,0.206 µM,0.471
CCCC(=O)Nc1c(I)cc(I)c(CC(CC)C(=O)O)c1I (stereo not given),> 100 µM,> 100 µM,> 100 µM,> 100 µM,> 100 µM,> 100 µM,> 100 µM,> 100 µM,> 100,> 100 µM,> 100 µM,> 100 µM,> 100,> 100,> 100 µM,> 100
O=C(O)CNC(=O)C1NC(C(F)(F)F)(C(F)(F)F)OC1(C(F)(F)F)C(F)(F)F (stereo not given),> 100 µM,> 100 µM,> 100 µM,> 100 µM,> 100 µM,> 100 µM,> 100 µM,> 100 µM,–,–,–,–,–,–,–,–
COc1cc2c(cc1OC)-c1ncc3cc(OC)c(OC)c(OC)c3c1C2,–,86.7 µM,73.9 µM,3.05 µM,> 100 µM,> 100 µM,> 100 µM,26.8 µM,–,34.8 µM,21.7 µM,1.68 µM,33,36.8,7.42 µM,> 100
COc1ccc2c(c1)c(-c1ccc(-c3cn(C)c4ccc(OC)cc34)o1)cn2C,> 100 µM,> 100 µM,5.28 µM,22.8 µM,> 100 µM,11.4 µM,13.4 µM,15.9 µM,> 100,> 100 µM,2.13 µM,10.4 µM,> 100,3.66,3.81 µM,2.72
COC1C(O)CC(OC2CC(OC3CC(O[C@@H]4C(=O)c5c(cc6cc(OC7CC(OC8CC(O)C(O)C(C)O8)C(O)C(C)O7)c(C)c(O)c6c5O)CC4[C@H](OC)[C@@H](O)C(C)=O)OC(C)C3O)OC(C)C2O)OC1C (stereo not given in full),0.103 µM,0.154 µM,0.0492 µM,0.0392 µM,> 33.3 µM,0.307 µM,> 33.3 µM,0.036 µM,0.0214,0.0171 µM,0.0167 µM,0.00993 µM,0.0211,0.0125,0.00977 µM,0.0124
O=S(=O)(NCCNc1cc(-c2cn(-c3ccccc3)nc2-c2cccc(O)c2)ccn1)c1ccc(Br)cc1,5.47 µM,5.99 µM,4.79 µM,3.03 µM,14.5 µM,7.71 µM,5.64 µM,3.87 µM,1.45,2.35 µM,2.3 µM,1.64 µM,3.59,2.21,1.81 µM,2.22
CNC(=S)N(C1CCCCC1)C1CCCCC1,–,> 100 µM,> 100 µM,> 100 µM,> 100 µM,> 100 µM,> 100 µM,> 100 µM,–,–,–,–,–,–,–,–
CN(C)C1C(=O)C(C(N)=O)=C(O)C2(O)C(=O)C3=C(O)c4c(O)cccc4C(C)(O)C3CC12 (stereo not given),95.5 µM and > 100 µM,> 100 µM,> 100 µM and 91.8 µM,39.9 µM and > 100 µM,> 100 µM,> 100 µM,–,> 100 µM,–,37.5 µM and > 100 µM,73 µM and 28 µM,22.4 µM and 56.5 µM,–,–,31.7 µM and 90.9 µM,–
C=C1C(=O)O[C@H]2[C@H]1CC/C(Cn1cc(-c3ccsc3)nn1)=C\CC[C@@]1(C)O[C@@H]21,12.6 µM,18.9 µM,5.34 µM,3.88 µM,31.4 µM,5.52 µM,8 µM,–,2.65,4.9 µM,2.27 µM,1.83 µM,17.4,2.5,–,2.03
O=c1c(-c2nc3ccccc3[nH]2)cc2ccccc2n1Cc1cn(Cc2ccccc2Cl)nn1,–,–,10.8 µM,–,–,9.88 µM,7.13 µM,3.57 µM,–,–,3.07 µM,–,–,2.41,1.73 µM,2.85
CC1=CC2=C(C#N)C(=O)OC2(C)C(c2ccccc2)C1 (stereo not given),> 100 µM,> 100 µM,> 100 µM,–,> 100 µM,–,> 100 µM,> 100 µM,–,–,–,–,–,–,–,–
CN[C@H]1CC[C@]23C[C@]24CC[C@]2(C)[C@@H]([C@H](C)N(C)C)CC[C@@]2(C)[C@@H]4CC[C@H]3C1(C)C,35.4 µM,–,40 µM,29.4 µM,38.2 µM,35.2 µM,27.6 µM,32.1 µM,–,–,–,–,–,–,–,–
CCC(=O)Nc1ncnc2ncn(C(=O)CC)c12,> 100 µM,> 100 µM,> 100 µM,–,> 100 µM,> 100 µM,> 100 µM,> 100 µM,–,–,–,–,–,–,–,–
CCCCCCC(O)C(O)CCC(O)C1CCC(CCCCC(O)CC2=CC(C)OC2=O)O1 (stereo not given),47.6 µM,26 µM,36 µM,7.07 µM and 13.4 µM,–,40.7 µM,> 100 µM,–,–,12.4 µM,17.4 µM,–,–,15.1,–,4.99
CCCCCCCCCCCCC(NC(C)=O)(C(=O)OCC)C(=O)OCC,26.6 µM,27.5 µM,–,16 µM,25.7 µM,20.7 µM,28.5 µM,19.6 µM,13.5,13.9 µM,–,3.87 µM,12.6,12.4,4.88 µM,5.43
CCN(CC)/[N+]([O-])=N/OCC(C)O (stereo not given),> 100 µM,> 100 µM,> 100 µM,> 100 µM,> 100 µM,–,> 100 µM,> 100 µM,–,–,–,–,–,–,–,–
